Results as given in paper PMC2010280 (British Journal of Cancer, 1980).

Tests used:
[1] = Bleomycin stability in the Alzet osmotic minipump; conditions: in 0.9% NaCl, 37 C, for at least 6 days (determined for 7 days in saline)
[2] = tested on: P388 leukaemic spleen colony-forming-units(LCFU-S); experiment: Mouse spleen-colony assay (P388 leukaemia, femoral marrow LCFU-S); format: in vivo, male DBA/2 mice; conditions: 8 u/kg/day for 6 days (Day 1-6); 10^6 P388 cells i.v. on Day 0; osmotic minipump vs daily i.p. bolus; groups of 5 mice
Description: MATERIALS AND METHODS Mice.-6-8-week-old male DBA/2 mice weighing 20-25 g were purchased from the Jackson Laboratory, Bar Harbor, Maine. They were maintained on normal laboratory chow and acid water ad. lib. Mouse leukaemia.-P388 lymphocytic leu- kaemia was supplied by Dr Daniel Griswold, Southern Research Institute, Birmingham, Alabama, and serially transplanted as ain ascites tumour at weekly intervals ([…] every 7 days in McCoy's 5a medium. Gibco, Grant Island, NY). […] Ill addition to an un- treated control group, 5 animals were implanted with minipumps containing 0.900 NaCl. Seven days after cell injection, the mice of the untreated control and treated groups were killed, femurs isolated, and marrow cells washed out with McCoy's 5a medium. Appro- priate dilutions of the leukaemic femoral marrow cells were injected i.v. into groups of 10 DBA/2 mice. Eight days later, the recipient mice were killed, spleens removed and fixed in Bouin's solution. The number of surface nacroscopic, leukaemic colony-forming units (LCFU-S) were counted with a dissecting microscope, and the fraction of surviving LCFU per femur determined. Pharmacokinetic studies.-On Day 0, 106 P388 ascites cells were injected i.v. into groups of 30 DBA/2 mice. […] For the C.i.p. group, blood samples from at least 3 mice were col- lected in heparinized tubes by heart puncture every day for 6 days. […]

[3] = Description: MATERIALS AND METHODS Mice.-6-8-week-old male DBA/2 mice weighing 20-25 g were purchased from the Jackson Laboratory, Bar Harbor, Maine. They were maintained on normal laboratory chow and acid water ad. lib. Mouse leukaemia.-P388 lymphocytic leu- kaemia was supplied by Dr Daniel Griswold, Southern Research Institute, Birmingham, Alabama, and serially transplanted as ain ascites tumour at weekly intervals ([…] every 7 days in McCoy's 5a medium. Gibco, Grant Island, NY). […] Ill addition to an un- treated control group, 5 animals were implanted with minipumps containing 0.900 NaCl. Seven days after cell injection, the mice of the untreated control and treated groups were killed, femurs isolated, and marrow cells washed out with McCoy's 5a medium. Appro- priate dilutions of the leukaemic femoral marrow cells were injected i.v. into groups of 10 DBA/2 mice. Eight days later, the recipient mice were killed, spleens removed and fixed in Bouin's solution. The number of surface nacroscopic, leukaemic colony-forming units (LCFU-S) were counted with a dissecting microscope, and the fraction of surviving LCFU per femur determined. Pharmacokinetic studies.-On Day 0, 106 P388 ascites cells were injected i.v. into groups of 30 DBA/2 mice. […] For the C.i.p. group, blood samples from at least 3 mice were col- lected in heparinized tubes by heart puncture every day for 6 days. […] At least 3 mice were killed at each sampling time. Blood samples were centrifuged at 2,000 rev/min and 4?C for 10 min and the plasmas separated and immediately stored at -20?C. […] Data analysis-Statistical analysis of the differences betwNeen LCFU dose-response (i.e., drug dose vs fraction of CFU surviving per femur) curves for the two different treat- ments used the analysis of covariance method (Snedecor & Cochran, 1979). […] I. Intravenous administration. Cancer Chemother. Pharmacol., 1, 177. […] II. Intra- cavitary administration. Cancer Chemother. Pharmacol., 2, 127. BAKER, L. H., OPIPARI, M. I., WILSON, H., BOTTOMLEY, R. & COLTMAN, C. A., JR. […] Obstet. Gynecol., 52, 146. BARRANCO, S. C. […] Ed. Carter, Crooke & Umezawa. New York: Academic Press. p. […] Cancer Res., 36, 1418. MELLETT, L. B. (1973) Considerations in design of optimal therapeutic schedules, Pharmacology and the Future of Man. In Problems of Therapy, Vol. 3. Ed. Okita & Acheson. Basel: S. Karger. p. 332. METZLER, C. M. (1969) Technical Report 7292/69/ 7292/005. […] Proc. AACR and ASCO, 20, 202. […] Eds. Carter, Crooke & Umezawa. New York: Academic Press. p. 117. […] Cancer Treat. Rep., 62, 2011. SKIPPER, H. E., SCHABEL, F. M., JR & WILCOX, W. S. (1967) Experimental evaluation of potential anticancer agents. XXI. Scheduling of arabinosyl cytosine to take advantage of its S-phase speci- ficity against leukaemia cells. Cancer Chemother Rep., 51, 125. […]

Substance: bleomycin
- stability inside the osmotic minipump [1]: 100%
- greater reduction of LCFU-S by continuous i.p. infusion than by intermittent i.p. bolus at identical dose [2]: 0.5 log
- period during which plasma concentrations greater than 0.6 mu/ml are maintained ([3]; after continuous i.p. infusion (C.i.p.), 8 u/kg/day): about 6 days
- period during which bleomycin plasma concentration remains above 0.6 mu/ml ([3]; after intermittent i.p. bolus (I.i.p.) administration, 8 u/kg/day): about 92 min
- constant bleomycin plasma level ([3]; continuous i.p. infusion (osmotic minipump), 8 u/kg/day for 6 days, P388-bearing mice, radioimmunoassay, pooled plasma of groups of 3 mice, daily samples): 0.62 +/- 0.03 mu/ml
- peak bleomycin plasma level ([3]; intermittent i.p. bolus, 8 u/kg/day, at 5 min after the dose, Day 5, radioimmunoassay): 32 mu/ml
